Data set [1] concerns the target T1, PDE5 from human platelets (Homo sapiens, UniProt O76074).
T1 construct: from tissue; host or cells: human platelets
Kind of data set: PDE5 inhibitory activity test (scintillation proximity assay). The data set is classed as biochemical.

Data set [2] has as its target T2, PDE3 (Homo sapiens, UniProt Q14432).
T2 construct: from tissue; host or cells: human platelets
Description: PDE3 inhibitory activity test (scintillation proximity assay). The data set is classed as biochemical. The note with it: PDE3 isolated from human platelets. The text has this: (§1) The PDE5 and PDE3 were isolated form human platelets, while the PDE6 was isolated form bovine retinas. The enzyme inhibitory activity test conducted immediately after the enzymes had been isolated, using a scintillation proximity assay for the direct detection of AMP/GMP by the TRKQ7100 and TRKQ7090 kit. In summary, the effect of PDE inhibitors was investigated by assaying a fixed amount of enzyme in the presence of varying inhibitor concentrations and low substrate. The final assay volume was made up to 100 μl with 10 μl assay buffer (50 mM Tris/HCl PH 7.5, 8.3 mM MgCl2, 1.7 mM EGTA), and water. Reactions were initiated with enzyme, incubate for 30 minutes at 30° C. and terminated with 50 μl yttrium silicate SPA beads suspension containing zinc sulphate. Shook for 20 minutes and settled for 30 minutes in the dark, then counted on a BECKMAN LS6500 MULTI-PURPOSE SCINTILLATION COUNTER. The IC50 value for the compounds according the present invention was calculated according the counts.
PDE3 is a PDE isozyme distributed mainly in heart, so the inhibiting of PDE3 may lead to side effects associated with heart. Accordingly, the inhibitory activities of some example compounds according to the invention against PDE3 were determined.
In general terms: SPA uses beads or plates that emit light when radiolabelled molecules are held near them.

Data set [3] addresses T3, PDE6 from bovine retina (Bos taurus, UniProt P11541+P23439).
T3 construct: the PDE6 was isolated form bovine retinas; from tissue; host or cells: bovine retina
T3 sequence (P11541 2-856 limits assumed): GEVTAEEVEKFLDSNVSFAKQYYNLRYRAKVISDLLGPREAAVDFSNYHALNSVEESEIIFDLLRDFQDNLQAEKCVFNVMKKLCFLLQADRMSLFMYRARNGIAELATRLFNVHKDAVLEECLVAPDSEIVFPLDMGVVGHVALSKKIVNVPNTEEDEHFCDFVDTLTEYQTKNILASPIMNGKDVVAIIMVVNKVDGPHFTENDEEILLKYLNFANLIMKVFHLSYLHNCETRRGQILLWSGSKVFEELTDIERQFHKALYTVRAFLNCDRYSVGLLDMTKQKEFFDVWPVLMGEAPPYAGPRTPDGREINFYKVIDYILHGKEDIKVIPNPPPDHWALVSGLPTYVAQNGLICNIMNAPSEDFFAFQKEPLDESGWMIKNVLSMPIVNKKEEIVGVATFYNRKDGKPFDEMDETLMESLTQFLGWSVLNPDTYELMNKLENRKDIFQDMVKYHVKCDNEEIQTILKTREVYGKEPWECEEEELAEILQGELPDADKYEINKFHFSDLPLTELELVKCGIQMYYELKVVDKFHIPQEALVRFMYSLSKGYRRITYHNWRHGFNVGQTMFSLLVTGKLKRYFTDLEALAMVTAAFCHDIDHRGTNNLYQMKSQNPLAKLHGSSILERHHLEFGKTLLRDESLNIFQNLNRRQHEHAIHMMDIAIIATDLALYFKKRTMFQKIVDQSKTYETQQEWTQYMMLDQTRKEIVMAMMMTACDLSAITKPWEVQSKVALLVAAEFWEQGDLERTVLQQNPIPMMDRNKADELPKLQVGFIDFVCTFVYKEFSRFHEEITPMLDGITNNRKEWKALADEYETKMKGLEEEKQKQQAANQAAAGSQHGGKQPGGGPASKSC
T3 sequence (P23439 2-850 limits assumed): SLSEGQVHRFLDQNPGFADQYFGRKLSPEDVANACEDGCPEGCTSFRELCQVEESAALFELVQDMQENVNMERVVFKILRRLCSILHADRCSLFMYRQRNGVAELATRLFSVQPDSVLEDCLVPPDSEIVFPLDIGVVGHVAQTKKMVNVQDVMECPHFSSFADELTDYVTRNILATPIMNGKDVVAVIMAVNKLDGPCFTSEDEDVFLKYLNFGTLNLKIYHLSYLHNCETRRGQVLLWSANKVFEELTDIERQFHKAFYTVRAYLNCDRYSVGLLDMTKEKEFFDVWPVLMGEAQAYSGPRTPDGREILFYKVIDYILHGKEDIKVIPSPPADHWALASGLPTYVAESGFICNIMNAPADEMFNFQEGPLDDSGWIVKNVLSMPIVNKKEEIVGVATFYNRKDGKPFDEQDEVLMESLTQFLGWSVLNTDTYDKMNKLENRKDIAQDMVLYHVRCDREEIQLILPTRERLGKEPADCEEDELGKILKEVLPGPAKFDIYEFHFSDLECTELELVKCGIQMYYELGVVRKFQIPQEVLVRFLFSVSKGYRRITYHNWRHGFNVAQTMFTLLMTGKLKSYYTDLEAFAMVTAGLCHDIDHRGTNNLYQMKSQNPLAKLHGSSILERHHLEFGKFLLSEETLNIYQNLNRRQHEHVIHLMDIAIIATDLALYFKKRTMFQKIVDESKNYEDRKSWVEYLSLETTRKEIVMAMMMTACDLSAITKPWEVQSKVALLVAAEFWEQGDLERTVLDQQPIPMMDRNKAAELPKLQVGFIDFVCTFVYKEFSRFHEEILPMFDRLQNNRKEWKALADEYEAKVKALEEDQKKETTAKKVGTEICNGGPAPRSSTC
Description: PDE6 inhibitory activity test (scintillation proximity assay). The data set is classed as biochemical.
Text: as §1

In data set [4] the test system is male KM mouse. Description: Acute oral toxicity test. It is filed as in vivo. The note with it: single oral dose of 3 g/kg, 10 or 11 mice per group. The procedure:
In this test male KM mouse weighting 18-22 g were used, and 10 or 11 mouse were assigned randomly to each group. […] The animals were fasted for 12 hours before the administration.

The subject of data set [5] is rat corpora cavernosa. Kind of data set: Pharmacodynamic test: intracavernous pressure on electric stimulation of the cavernous nerve. It is filed as in vivo. The note with it: anesthetized male SD rats, 5 mg/kg orally, ratio of ICP to MBp. As for the experimental part: The test was carried out based on the methods reported (International Journal of Impotence Research 2002, 14, 251 and The Journal of Urology 1992, 147, 1124). After fasted for 12 hours, 4 male SD rats were randomized into each group. After anesthetizing the rats with sodium pentobarbital (50 mg/kg, i.p.), the penile skin was incised and the prepuce was degloved to expose completely the corpora cavernosa (CC). A needle linked to an electrophysiology instrument was inserted into the CC on the right side in order to measure the intracavernous pressure (ICP). The right carotid artery was cannulated in a similar manner to the polyethylene tube in order to monitor the mean blood pressure (MBp) continuously. […] Electric stimulation was performed at 2 Hz, for 60 s with a pulse duration of 5 ms and 3V using a stimulator. The compounds were administrated orally (5 mg/kg). The change of the ICP and MBp were monitored continuously before and after the administration. The effect of the compounds on the erection induced by electric stimulation was evaluated by the ratio of ICP to MBp. The parameter (ICP/MBp) was used to estimate the influence of the compounds to the rat corpora cavernosa. […] The statistical significance of the differences between groups was calculated using Duncan's multiple comparison.

Usually IC50 stands for the midpoint of a concentration-inhibition curve.

T2 sequence (Q14432 whole entry): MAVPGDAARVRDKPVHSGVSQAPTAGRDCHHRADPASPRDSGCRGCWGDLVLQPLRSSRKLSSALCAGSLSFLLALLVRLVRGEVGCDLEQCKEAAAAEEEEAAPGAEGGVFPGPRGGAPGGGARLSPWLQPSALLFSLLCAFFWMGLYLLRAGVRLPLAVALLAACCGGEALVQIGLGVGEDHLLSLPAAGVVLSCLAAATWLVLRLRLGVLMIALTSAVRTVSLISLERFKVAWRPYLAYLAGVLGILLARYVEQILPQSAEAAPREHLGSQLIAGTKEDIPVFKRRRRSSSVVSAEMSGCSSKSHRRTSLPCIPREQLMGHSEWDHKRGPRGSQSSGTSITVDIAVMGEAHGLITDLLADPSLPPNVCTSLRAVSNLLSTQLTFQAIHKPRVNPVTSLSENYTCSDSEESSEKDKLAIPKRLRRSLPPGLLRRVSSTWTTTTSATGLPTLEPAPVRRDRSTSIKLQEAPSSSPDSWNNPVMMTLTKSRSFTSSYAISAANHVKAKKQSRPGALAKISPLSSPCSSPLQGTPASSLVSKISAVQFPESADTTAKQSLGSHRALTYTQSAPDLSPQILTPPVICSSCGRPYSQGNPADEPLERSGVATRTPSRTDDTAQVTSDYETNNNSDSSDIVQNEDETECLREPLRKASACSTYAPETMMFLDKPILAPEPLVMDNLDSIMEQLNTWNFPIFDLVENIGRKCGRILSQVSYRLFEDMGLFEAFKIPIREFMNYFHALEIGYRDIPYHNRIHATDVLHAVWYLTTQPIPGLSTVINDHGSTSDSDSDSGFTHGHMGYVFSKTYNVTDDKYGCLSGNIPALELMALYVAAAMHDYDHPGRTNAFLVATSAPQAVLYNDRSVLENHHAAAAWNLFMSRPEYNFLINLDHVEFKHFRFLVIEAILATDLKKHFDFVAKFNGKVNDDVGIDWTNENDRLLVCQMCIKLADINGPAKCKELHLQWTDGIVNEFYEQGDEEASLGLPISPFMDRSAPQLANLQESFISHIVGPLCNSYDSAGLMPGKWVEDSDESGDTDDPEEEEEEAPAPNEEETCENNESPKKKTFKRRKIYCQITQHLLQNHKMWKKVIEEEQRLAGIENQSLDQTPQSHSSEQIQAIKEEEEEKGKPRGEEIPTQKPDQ

For the compound `CCCOc1ccc(S(=O)(=O)N(CCCOC)CCCOC(C)=O)cc1-c1nc2c(CCC)nn(C)c2c(=O)[nH]1` [Example 118, 1-methyl-5-{2-propoxy-5-[[1-(3-methoxypropyl)-1-(3-acetoxypropyl)]amidosulfonyl]phenyl}-3-n-propyl-1,6-dihydro-7H-pyrazolo[4,3-d]pyrimidin-7-one], the IC50 in data set [1] (PDE5 from human platelets) turned out to be 5.41 nM; in data set [1] (PDE5 in the PDE6 selectivity table), 5.41 nM; in data set [2], 20500 nM; in data set [3] (PDE6 from bovine retina), 203 nM. In data set [3] (selectivity of PDE5 versus PDE6), the “PDE6 IC50/PDE5 IC50” value was 37.6. The same compound gave a Number of death in data set [4] of 0. This compound gave a mortality rate in data set [4] of 0%. Also, in data set [5], the ICP/BP is listed as 77.9 ± 2.3.

These data come from patent US20080318949A1, “Pyrazolopyrimidinone Derivatives, Their Preparation And Their Use” (Topharman Shanghai Co., Ltd, priority 2005, published 2008).
